From ChEMBL document CHEMBL5653631, “A Potent and Selective ULK1 Inhibitor Suppresses Autophagy and Sensitizes Cancer Cells to Nutrient Stress” (iScience, 2018)
Values belong to the compound of their own block, whether it stands above or below them.

Experiments:
[1] = target: Mitogen-activated protein kinase 10 (Homo sapiens) (UniProt P53779); assay: Inhibition of human recombinant JNK3 at 500 nM related to control ULK1
[2] = target: SRSF protein kinase 2 (Homo sapiens) (UniProt P78362); assay: Inhibition of human recombinant SRPK2 at 15 nM in presence of ATP by radiometric assay relative to control
Chain of SRSF protein kinase 2 (Homo sapiens) (P78362 whole entry, looked up): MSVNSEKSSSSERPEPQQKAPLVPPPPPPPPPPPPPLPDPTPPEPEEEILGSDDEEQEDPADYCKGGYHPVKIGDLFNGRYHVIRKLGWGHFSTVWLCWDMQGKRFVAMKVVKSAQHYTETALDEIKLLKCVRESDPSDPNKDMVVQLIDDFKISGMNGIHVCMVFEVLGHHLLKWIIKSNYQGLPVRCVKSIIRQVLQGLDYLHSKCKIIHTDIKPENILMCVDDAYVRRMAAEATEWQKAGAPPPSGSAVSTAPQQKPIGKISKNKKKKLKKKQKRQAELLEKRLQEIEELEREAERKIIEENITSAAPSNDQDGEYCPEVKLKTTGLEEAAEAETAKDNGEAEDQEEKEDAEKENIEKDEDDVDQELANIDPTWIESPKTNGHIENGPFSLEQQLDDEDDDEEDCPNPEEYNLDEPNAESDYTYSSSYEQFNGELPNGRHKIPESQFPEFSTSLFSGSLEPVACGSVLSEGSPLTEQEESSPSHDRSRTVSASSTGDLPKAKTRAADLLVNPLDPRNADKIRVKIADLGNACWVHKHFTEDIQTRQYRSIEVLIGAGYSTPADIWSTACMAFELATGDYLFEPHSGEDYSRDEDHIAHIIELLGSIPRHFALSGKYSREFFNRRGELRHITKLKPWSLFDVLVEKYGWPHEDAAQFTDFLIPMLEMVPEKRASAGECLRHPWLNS

[3] = target: T1, Serine/threonine-protein kinase Nek9 (Homo sapiens) (UniProt Q8TD19); assay: Inhibition of human recombinant NEK9 at 40 nM related to control ULK1
T1 sequence (whole entry): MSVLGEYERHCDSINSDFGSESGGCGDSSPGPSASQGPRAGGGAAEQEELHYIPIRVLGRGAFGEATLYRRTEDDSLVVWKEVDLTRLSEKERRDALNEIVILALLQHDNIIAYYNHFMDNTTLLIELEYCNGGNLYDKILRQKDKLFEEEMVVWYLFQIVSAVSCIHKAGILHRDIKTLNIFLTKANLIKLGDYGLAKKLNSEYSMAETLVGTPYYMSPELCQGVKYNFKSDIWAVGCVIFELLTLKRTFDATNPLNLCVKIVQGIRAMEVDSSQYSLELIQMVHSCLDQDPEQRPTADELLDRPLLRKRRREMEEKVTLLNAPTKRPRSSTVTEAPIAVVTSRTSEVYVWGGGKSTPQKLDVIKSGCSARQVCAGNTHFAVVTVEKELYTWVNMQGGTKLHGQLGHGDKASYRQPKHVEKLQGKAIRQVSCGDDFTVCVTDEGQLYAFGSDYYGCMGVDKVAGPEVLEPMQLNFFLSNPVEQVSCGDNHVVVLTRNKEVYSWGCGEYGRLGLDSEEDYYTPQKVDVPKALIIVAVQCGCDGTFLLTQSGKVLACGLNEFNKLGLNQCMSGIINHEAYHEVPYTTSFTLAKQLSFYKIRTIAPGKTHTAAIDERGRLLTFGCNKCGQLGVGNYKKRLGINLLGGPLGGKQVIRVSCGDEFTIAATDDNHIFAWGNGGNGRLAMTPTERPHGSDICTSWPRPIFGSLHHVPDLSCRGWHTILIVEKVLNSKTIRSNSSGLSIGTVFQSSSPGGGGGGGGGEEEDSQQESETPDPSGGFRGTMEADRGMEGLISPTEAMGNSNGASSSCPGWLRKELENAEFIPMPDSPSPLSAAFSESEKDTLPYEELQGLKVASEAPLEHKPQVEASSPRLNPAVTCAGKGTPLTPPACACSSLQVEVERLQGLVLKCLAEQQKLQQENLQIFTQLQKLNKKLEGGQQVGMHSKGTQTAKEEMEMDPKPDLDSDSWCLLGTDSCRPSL

[4] = target: Platelet-derived growth factor receptor beta (Homo sapiens) (UniProt P09619); assay: Inhibition of human recombinant PDGFRb at 40 nM related to control ULK1
Chain of Platelet-derived growth factor receptor beta (Homo sapiens) (P09619 whole entry): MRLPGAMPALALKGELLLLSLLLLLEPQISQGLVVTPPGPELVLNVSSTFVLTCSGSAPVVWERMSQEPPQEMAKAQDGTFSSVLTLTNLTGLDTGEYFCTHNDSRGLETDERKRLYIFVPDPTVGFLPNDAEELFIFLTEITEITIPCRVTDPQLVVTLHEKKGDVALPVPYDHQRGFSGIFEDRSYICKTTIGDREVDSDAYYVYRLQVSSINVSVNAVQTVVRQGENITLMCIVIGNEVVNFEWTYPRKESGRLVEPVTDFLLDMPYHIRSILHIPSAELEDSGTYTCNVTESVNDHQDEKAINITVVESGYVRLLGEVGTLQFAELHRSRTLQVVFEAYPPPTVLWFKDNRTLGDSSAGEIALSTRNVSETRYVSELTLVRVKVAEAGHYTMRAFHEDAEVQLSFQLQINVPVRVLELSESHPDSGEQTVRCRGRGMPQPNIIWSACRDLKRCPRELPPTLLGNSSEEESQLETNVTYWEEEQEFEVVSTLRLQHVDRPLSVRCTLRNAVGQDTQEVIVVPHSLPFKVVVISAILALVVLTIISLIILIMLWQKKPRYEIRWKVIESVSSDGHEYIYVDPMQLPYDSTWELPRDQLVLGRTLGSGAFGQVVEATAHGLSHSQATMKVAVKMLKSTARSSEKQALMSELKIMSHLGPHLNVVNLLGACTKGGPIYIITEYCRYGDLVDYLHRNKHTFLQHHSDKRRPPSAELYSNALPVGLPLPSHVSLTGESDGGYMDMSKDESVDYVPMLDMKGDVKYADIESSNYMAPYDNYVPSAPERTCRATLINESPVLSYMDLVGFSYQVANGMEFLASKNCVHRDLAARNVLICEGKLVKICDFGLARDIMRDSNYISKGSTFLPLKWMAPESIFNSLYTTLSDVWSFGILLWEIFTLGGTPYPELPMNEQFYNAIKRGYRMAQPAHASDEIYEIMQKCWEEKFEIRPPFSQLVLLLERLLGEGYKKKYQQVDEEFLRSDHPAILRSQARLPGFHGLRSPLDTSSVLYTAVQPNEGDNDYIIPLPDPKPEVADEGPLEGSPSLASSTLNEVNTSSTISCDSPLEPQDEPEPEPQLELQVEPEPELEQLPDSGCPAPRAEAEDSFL

[5] = target: Serine/threonine-protein kinase PLK2 (Homo sapiens) (UniProt Q9NYY3); assay: Inhibition of human recombinant PLK2 at 40 nM in presence of ATP by radiometric assay relative to control
Chain of Serine/threonine-protein kinase PLK2 (Homo sapiens) (Q9NYY3 whole entry, looked up): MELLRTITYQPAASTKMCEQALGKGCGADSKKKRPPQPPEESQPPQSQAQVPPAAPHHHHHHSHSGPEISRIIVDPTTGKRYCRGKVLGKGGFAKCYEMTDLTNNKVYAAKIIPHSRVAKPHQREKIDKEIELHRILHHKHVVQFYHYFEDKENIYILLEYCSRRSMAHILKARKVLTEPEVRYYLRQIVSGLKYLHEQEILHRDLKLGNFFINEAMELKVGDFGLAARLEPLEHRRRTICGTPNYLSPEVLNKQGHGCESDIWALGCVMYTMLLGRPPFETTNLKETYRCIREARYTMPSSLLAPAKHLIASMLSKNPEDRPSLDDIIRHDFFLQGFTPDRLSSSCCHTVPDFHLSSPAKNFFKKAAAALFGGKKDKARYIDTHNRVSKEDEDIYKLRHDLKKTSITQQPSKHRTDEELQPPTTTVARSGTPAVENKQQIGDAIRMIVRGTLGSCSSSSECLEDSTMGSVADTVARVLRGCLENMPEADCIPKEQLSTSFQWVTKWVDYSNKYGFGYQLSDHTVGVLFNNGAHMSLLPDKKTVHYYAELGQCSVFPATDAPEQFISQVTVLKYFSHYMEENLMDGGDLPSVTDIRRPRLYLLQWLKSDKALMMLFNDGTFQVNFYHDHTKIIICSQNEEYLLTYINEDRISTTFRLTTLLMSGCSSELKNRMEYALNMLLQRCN

[6] = target: Serine/threonine-protein kinase MRCK beta (Homo sapiens) (UniProt Q9Y5S2); assay: Inhibition of human recombinant MRCKb at 40 nM in presence of ATP by radiometric assay relative to control
Chain of Serine/threonine-protein kinase MRCK beta (Homo sapiens) (Q9Y5S2 whole entry): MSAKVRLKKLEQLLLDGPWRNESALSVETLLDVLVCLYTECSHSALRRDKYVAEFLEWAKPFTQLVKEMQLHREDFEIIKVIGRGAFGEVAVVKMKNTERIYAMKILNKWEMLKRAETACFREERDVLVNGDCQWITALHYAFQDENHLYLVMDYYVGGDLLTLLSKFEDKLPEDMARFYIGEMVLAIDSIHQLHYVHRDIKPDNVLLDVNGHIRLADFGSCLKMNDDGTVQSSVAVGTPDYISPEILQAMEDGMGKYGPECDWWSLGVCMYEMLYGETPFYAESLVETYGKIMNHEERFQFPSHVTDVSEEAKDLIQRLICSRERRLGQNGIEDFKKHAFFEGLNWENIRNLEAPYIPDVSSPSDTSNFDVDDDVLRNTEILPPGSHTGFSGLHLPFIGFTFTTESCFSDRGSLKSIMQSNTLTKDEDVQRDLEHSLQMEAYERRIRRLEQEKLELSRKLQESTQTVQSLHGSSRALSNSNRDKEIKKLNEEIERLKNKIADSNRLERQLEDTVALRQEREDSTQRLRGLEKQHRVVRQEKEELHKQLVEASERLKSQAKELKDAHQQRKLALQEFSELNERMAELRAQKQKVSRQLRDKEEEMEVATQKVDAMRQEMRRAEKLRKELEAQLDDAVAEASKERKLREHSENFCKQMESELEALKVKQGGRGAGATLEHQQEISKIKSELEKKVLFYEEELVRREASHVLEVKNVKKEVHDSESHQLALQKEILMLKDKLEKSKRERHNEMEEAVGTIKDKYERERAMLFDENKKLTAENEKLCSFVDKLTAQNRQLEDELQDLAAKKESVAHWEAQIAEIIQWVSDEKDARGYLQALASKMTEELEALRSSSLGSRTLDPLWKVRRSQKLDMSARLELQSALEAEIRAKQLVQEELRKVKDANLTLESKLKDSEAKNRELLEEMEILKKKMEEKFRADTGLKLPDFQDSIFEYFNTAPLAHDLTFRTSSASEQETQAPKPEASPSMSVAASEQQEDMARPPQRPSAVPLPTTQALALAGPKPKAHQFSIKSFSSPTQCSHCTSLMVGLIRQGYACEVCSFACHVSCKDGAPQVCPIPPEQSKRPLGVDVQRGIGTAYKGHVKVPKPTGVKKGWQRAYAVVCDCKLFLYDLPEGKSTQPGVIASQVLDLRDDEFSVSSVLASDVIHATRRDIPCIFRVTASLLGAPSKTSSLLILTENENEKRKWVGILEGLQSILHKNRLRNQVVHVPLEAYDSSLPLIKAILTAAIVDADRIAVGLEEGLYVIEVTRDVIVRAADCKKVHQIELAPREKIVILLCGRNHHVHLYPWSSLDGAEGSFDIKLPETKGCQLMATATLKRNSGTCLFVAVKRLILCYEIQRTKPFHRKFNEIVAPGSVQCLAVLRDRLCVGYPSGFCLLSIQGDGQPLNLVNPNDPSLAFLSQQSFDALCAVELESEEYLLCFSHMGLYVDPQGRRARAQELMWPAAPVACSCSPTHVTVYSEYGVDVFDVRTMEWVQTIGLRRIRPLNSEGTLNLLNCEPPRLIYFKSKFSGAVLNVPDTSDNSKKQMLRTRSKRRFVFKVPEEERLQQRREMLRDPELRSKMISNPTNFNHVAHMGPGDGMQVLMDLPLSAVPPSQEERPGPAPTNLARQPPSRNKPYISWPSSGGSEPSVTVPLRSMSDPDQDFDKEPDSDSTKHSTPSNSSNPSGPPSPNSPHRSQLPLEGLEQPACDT

[7] = target: T2, Serine/threonine-protein kinase DCLK2 (Homo sapiens) (UniProt Q8N568); assay: Inhibition of human recombinant DCAMKL2 at 40 nM related to control ULK1
T2 sequence (whole entry): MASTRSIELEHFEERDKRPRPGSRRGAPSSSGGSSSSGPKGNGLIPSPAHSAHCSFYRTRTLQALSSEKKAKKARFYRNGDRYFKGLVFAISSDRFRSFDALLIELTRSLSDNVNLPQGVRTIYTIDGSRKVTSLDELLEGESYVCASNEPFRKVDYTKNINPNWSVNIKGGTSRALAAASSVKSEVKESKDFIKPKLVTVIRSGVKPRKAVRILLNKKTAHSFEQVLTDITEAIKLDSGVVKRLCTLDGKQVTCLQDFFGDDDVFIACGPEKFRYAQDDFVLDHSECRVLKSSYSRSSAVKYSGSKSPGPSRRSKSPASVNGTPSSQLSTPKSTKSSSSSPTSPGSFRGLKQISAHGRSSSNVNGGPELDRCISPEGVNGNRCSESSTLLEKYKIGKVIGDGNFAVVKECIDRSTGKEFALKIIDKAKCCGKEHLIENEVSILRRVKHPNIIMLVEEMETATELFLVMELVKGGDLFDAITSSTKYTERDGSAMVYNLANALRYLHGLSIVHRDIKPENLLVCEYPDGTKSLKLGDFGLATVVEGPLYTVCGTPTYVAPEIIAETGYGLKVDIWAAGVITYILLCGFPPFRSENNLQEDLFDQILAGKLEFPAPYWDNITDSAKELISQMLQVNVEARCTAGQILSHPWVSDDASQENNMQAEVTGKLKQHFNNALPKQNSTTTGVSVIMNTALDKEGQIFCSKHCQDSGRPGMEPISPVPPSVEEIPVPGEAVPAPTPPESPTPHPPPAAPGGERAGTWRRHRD

[8] = target: T3, Protein kinase C epsilon type (Homo sapiens) (UniProt Q02156); assay: Inhibition of human recombinant PKCe at 40 nM in presence of ATP by radiometric assay relative to control
T3 sequence (whole entry): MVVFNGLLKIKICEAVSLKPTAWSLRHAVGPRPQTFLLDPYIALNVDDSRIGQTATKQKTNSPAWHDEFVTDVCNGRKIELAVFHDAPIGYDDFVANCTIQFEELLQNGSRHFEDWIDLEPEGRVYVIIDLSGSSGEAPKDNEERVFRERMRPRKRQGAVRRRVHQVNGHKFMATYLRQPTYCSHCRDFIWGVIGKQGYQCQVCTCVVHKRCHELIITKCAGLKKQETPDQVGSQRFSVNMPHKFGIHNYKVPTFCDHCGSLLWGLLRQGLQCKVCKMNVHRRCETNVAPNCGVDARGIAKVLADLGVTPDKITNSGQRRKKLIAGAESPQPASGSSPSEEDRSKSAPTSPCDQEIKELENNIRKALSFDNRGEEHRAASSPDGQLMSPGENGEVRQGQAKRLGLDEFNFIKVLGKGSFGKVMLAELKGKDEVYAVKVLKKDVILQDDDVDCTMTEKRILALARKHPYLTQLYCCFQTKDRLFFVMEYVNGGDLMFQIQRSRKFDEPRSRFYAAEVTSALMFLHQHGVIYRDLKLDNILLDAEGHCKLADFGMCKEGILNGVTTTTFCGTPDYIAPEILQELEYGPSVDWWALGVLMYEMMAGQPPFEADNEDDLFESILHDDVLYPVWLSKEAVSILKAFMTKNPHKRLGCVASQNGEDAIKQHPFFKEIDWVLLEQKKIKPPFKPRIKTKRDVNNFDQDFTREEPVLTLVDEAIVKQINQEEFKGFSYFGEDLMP

[9] = target: Serine/threonine-protein kinase WNK1 (Homo sapiens) (UniProt Q9H4A3); assay: Inhibition of human recombinant Wnk1 at 40 nM in presence of ATP by radiometric assay relative to control

Chain of Mitogen-activated protein kinase 10 (Homo sapiens) (P53779 whole entry): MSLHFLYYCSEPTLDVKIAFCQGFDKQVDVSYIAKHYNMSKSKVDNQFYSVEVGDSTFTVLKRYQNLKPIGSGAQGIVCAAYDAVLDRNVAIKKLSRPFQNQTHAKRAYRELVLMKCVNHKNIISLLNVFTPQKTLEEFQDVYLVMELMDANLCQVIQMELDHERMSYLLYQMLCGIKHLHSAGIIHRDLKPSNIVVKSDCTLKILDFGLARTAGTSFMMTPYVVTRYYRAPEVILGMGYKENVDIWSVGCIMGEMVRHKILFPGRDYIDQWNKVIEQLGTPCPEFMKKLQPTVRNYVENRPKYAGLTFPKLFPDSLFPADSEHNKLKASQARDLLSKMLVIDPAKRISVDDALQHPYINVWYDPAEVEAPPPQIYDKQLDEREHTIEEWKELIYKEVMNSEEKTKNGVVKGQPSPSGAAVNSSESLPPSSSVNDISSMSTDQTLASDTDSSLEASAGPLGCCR

fold change (FC) [1]: 0.04
Structure (SMILES): CNC(=O)c1ccccc1Oc1nc(Nc2cc(OC)c(OC)c(OC)c2)ncc1Br

inhibition [2]: 0%
Structure (SMILES): CC(C)[C@H](NC(=O)c1cc(-c2cnn3cc(-c4ccc(OCCN5CCCCC5)cc4)cnc23)cs1)C(F)(F)F

fold change (FC) [4]: 0.07 | inhibition [5]: 3% | inhibition [6]: 5% | fold change (FC) [7]: 0 | inhibition [8]: 0% | inhibition [9]: 12%
Structure (SMILES): O=C(N[C@@H](C1CC1)C(F)(F)F)c1cc(-c2cnn3cc(-c4ccc(F)cc4)cnc23)cs1
fold change (FC) [3]: 0.07
